Test results taken from the supplement of paper PMC11451515.

Tested on: NOMO1
Assay: cell viability relative to DMSO control; higher = less cytotoxic
Details: 48 h
In short: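 Three leukemia lines were tested: NOMO1 and SEM at 500 cells/well and P12-Ichikawa at 1000 cells/well. Each was adapted for at least four passages in each medium and seeded in 5 μl in 1536-well plates, and library compounds in DMSO were pin-dosed from 47 μM to 0.79 nM in 11 threefold steps. After 48 h at 37°C, CellTiter-Glo One luminescence was read. Viability is a percentage relative to DMSO wells on each plate, with cell-free wells as background.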

[1] = RPMI 5 mM glucose + 10% FBS, 0.000781 µM
[2] = RPMI 5 mM glucose + 10% FBS, 0.00234 µM
[3] = RPMI 5 mM glucose + 10% FBS, 0.00702 µM
[4] = RPMI 5 mM glucose + 10% FBS, 0.0211 µM
[5] = RPMI 5 mM glucose + 10% FBS, 0.0632 µM
[6] = RPMI 5 mM glucose + 10% FBS, 0.19 µM
[7] = RPMI 5 mM glucose + 10% FBS, 0.569 µM
[8] = RPMI 5 mM glucose + 10% FBS, 1.71 µM
[9] = RPMI 5 mM glucose + 10% FBS, 5.12 µM
[10] = RPMI 5 mM glucose + 10% FBS, 15.4 µM
[11] = RPMI 5 mM glucose + 10% FBS, 46.1 µM
[12] = HPLM + 10% dialyzed FBS, 0.000781 µM
[13] = HPLM + 10% dialyzed FBS, 0.00234 µM
[14] = HPLM + 10% dialyzed FBS, 0.00702 µM
[15] = HPLM + 10% dialyzed FBS, 0.0211 µM
[16] = HPLM + 10% dialyzed FBS, 0.0632 µM
[17] = HPLM + 10% dialyzed FBS, 0.19 µM
[18] = HPLM + 10% dialyzed FBS, 0.569 µM
[19] = HPLM + 10% dialyzed FBS, 1.71 µM
[20] = HPLM + 10% dialyzed FBS, 5.12 µM
[21] = HPLM + 10% dialyzed FBS, 15.4 µM
[22] = HPLM + 10% dialyzed FBS, 46.1 µM
[23] = RPMI 5 mM glucose + 10% dialyzed FBS, 0.000781 µM
[24] = RPMI 5 mM glucose + 10% dialyzed FBS, 0.00234 µM
[25] = RPMI 5 mM glucose + 10% dialyzed FBS, 0.00702 µM
[26] = RPMI 5 mM glucose + 10% dialyzed FBS, 0.0211 µM
[27] = RPMI 5 mM glucose + 10% dialyzed FBS, 0.0632 µM
[28] = RPMI 5 mM glucose + 10% dialyzed FBS, 0.19 µM
[29] = RPMI 5 mM glucose + 10% dialyzed FBS, 0.569 µM
[30] = RPMI 5 mM glucose + 10% dialyzed FBS, 1.71 µM
[31] = RPMI 5 mM glucose + 10% dialyzed FBS, 5.12 µM
[32] = RPMI 5 mM glucose + 10% dialyzed FBS, 15.4 µM
[33] = RPMI 5 mM glucose + 10% dialyzed FBS, 46.1 µM

SMILES	cell viability [1] [%]	cell viability [2] [%]	cell viability [3] [%]	cell viability [4] [%]	cell viability [5] [%]	cell viability [6] [%]	cell viability [7] [%]	cell viability [8] [%]	cell viability [9] [%]	cell viability [10] [%]	cell viability [11] [%]	cell viability [12] [%]	cell viability [13] [%]	cell viability [14] [%]	cell viability [15] [%]	cell viability [16] [%]	cell viability [17] [%]	cell viability [18] [%]	cell viability [19] [%]	cell viability [20] [%]	cell viability [21] [%]	cell viability [22] [%]	cell viability [23] [%]	cell viability [24] [%]	cell viability [25] [%]	cell viability [26] [%]	cell viability [27] [%]	cell viability [28] [%]	cell viability [29] [%]	cell viability [30] [%]	cell viability [31] [%]	cell viability [32] [%]	cell viability [33] [%]
CC[C@@H]1[C@@H](C)O[C@@](O)([C@@H](C)[C@H](O)[C@H](C)[C@H]2OC(=O)/C=C/C=C/[C@H](C)[C@@H]([C@@H](C)[C@@H](O)[C@H](C)[C@@]3(O)C[C@@H](O[C@H]4C[C@H](O)[C@H](O)[C@H](C)O4)[C@H](CC)[C@@H](C)O3)OC(=O)/C=C/C=C/[C@@H]2C)C[C@H]1O[C@H]1C[C@H](O)[C@H](O)[C@H](C)O1	111	117	129	121	118	132	128	121	6.11	17.5	2.97																						
Cc1ccccc1C(OCCN(C)C)c1ccccc1 (stereo unspecified)	121	112	120	120	120	115	125	125	127	117	116	102	117	145	138	135	143	142	122	116	125	57.5											
N\C1=N\C2=C(N=C[N]2COCCO)C(=O)N1	106	96.8	109	109	103	95.4	98.1	103	103	97.4	96.9	93.1	106	123	112	103	119	104	125	98.3	102	73.4	112	101	103	97.8	93.8	113	106	109	107	100	71.5
CCC[S+](=O)([O-])Nc1ccc(F)c(C(=O)c2c[nH]c3ncc(Cl)cc23)c1F	112	110	115	117	120	121	114	108	107	62.6	43.8												116	119	117	100	107	128	119	122	123	62.3	42.9
CCOC(=O)N1c2ccc(C(F)(F)F)cc2[C@@H](N(Cc2cc(C(F)(F)F)cc(C(F)(F)F)c2)C(=O)OC)C[C@H]1CC	121	117	105	118	129	113	115	111	114	112	107	124	149	123	118	124	139	110	109	120	105	110	110	117	121	115	121	110	103	112	119	109	93.7
